Values of other authors in paper PMC8380238, “Structure-based virtual screening of CYP1A1 inhibitors: towards rapid tier-one assessment of potential developmental toxicants” (Archives of Toxicology, 2021).
Structures can show the parent of a compound that is named as a salt. Where two headings read alike, the source gives them in different places.

Tested on: human CYP1A1
Parameters: unit not given beside the values
Details: cited from earlier work

Row | Compound | AC50 | other results
1 | c1ccc(C(O[C@@H]2CCCN(CCc3ccc4c(c3)OCO4)C2)c2ccccc2)cc1 [Zamifenacin] |  | AC50 (NVS_ADME_hCYP1A1, values appear to be log10, ref ToxCast): 0.759
2 | CCCCN(CCCC)SN(C)C(=O)Oc1cccc2c1OC(C)(C)C2 [Carbosulfan] | 0.7573 | 
3 | Nc1cccc2c(N)cccc12 [1,5-Naphthalenediamine] | 0.8388 | 
4 | O=C(Nc1ccccc1)Nc1ccnc(Cl)c1 [Forchlorfenuron] | 0.9909 | 
5 | Sc1nc2ccccc2s1 [2-Mercaptobenzothiazole] | -0.7864 | 
6 | C=CCOC(Cn1ccnc1)c1ccc(Cl)cc1Cl (stereo not shown) [Imazalil] | 0.1501 | 
7 | Oc1ccc2ccc3cccc4ccc1c2c34 [1-Hydroxypyrene] | 0.4188 | 
8 | COC(=O)N(OC)c1ccccc1COc1ccn(-c2ccc(Cl)cc2)n1 [Pyraclostrobin] | 0.2248 | 
9 | CSc1nc(NC(C)C)nc(NC(C)C)n1 [Prometryn] | 0.888 | 
10 | CON(C)C(=O)Nc1ccc(Cl)c(Cl)c1 [Linuron] | 0.4776 | 
11 | CCOP(=S)(OCC)SCSCC [Phorate] | 0.6456 | 
12 | CCCC1COC(Cn2cncn2)(c2ccc(Cl)cc2Cl)O1 (stereo not shown) [Propiconazole] | 0.9547 | 
13 | CC(C)(C)C(=O)C(Oc1ccc(Cl)cc1)n1cncn1 (stereo not shown) [Triadimefon] | 0.3192 | 
14 | COc1ccc(-c2ccccc2)cc1NNC(=O)OC(C)C [Bifenazate] | -0.1841 | 
15 | CCOP(=O)(NC(C)C)Oc1ccc(SC)c(C)c1 (stereo not shown) [Fenamiphos] | 0.6838 | 
16 | CCNc1nc(Cl)nc(NCC)n1 [Simazine] | 0.05448 | 
17 | CN(C)CCCN1c2ccccc2Sc2ccc(Cl)cc21 [Chlorpromazine hydrochloride] | 0.7565 | 
18 | CCNP(=S)(OC)O/C(C)=C/C(=O)OC(C)C (stereo not shown) [Propetamphos] | 0.3484 | 
19 | COP(=S)(OC)SCN1C(=O)c2ccccc2C1=O [Phosmet] | 0.5339 | 
20 | COC(=O)[C@H]1[C@H]2C[C@@H]3c4[nH]c5cc(OC)ccc5c4CCN3C[C@H]2C[C@@H](OC(=O)c2cc(OC)c(OC)c(OC)c2)[C@@H]1OC [Reserpine] | -0.938 | 

Row | Compound | AC50 | other results
21 | COc1nn(CSP(=S)(OC)OC)c(=O)s1 [Methidathion] | 0.6887 | 
22 | COP(=S)(OC)SCn1nnc2ccccc2c1=O [Azinphos-methyl] | -0.4803 | 
23 | O=[N+]([O-])c1c(Cl)c(Cl)c(Cl)c(Cl)c1Cl [Pentachloronitrobenzene] | -0.9415 | 
24 | CSC(C)(C)C=NO [Aldicarb oxime] | 0.7517 | 
25 | N#CC(CCc1ccc(Cl)cc1)(Cn1cncn1)c1ccccc1 (stereo not shown) [Fenbuconazole] | -0.05845 | 
26 | Cc1cc(N=Nc2ccccc2C)ccc1N [2-Amino-5-azotoluene] | 0.8236 | 
27 | O=c1[nH]sc2ccccc12 [1,2-Benzisothiazolin-3-one] | 0.7251 | 
28 | CC1=C(/C=C/C(C)=C/C=C/C(C)=C/C(=O)O)C(C)(C)CCC1 [all-trans-Retinoic acid] |  | AC50 (ToxCast NVS_ADME_hCYP1A1, NA = no AC50, ref ToxCast): 0.1194
29 | CC(C)NC(=O)N1CC(=O)N(c2cc(Cl)cc(Cl)c2)C1=O [Iprodione] | 0.8242 | 
30 | CCOC(=O)C(Cl)Cc1cc(-n2nc(C)n(C(F)F)c2=O)c(F)cc1Cl (stereo not shown) [Carfentrazone-ethyl] | 0.8125 | 
31 | Chlorpyrifos oxon | 0.9288 | 
32 | CS/C(C)=N\OC(=O)N(C)SN(C)C(=O)O/N=C(\C)SC [Thiodicarb] | 0.9955 | 
33 | C#CC(C)(C)NC(=O)c1cc(Cl)cc(Cl)c1 [Propyzamide] | 0.363 | 
34 | CCOP(=S)(OCC)SCn1c(=O)oc2cc(Cl)ccc21 [Phosalone] | -0.311 | 
35 | c1ccc2[nH]c(-c3cscn3)nc2c1 [Thiabendazole] | 0.674 | 
36 | O=C(Nc1ccccc1)c1ccccc1I [Benodanil] | -1.884 | 
37 | CCCCOCCOCCOCc1cc2c(cc1CCC)OCO2 [Piperonyl butoxide] | 0.8015 | 
38 | CCNc1nc(Cl)nc(NC(C)C)n1 [Atrazine] | 0.9162 | 
39 | COc1ccc(C(=CC(=O)N2CCOCC2)c2ccc(Cl)cc2)cc1OC [Dimethomorph] | 0.8349 | 
40 | Nc1ccc(-c2ccc(N)cc2)cc1 [Benzidine] | 0.5505 | 
